Data from PubChem BioAssay (NCI).
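Cultured in 96-well plates, cells were exposed to test compound for 48 hours across five concentrations. GI50: concentration for 50% inhibition of growth. TGI denotes the concentration required for complete inhibition of growth.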

Key:
Assay in all cases: NCI-60 cell line screen, 48 h
HOP-62 NSCLC = tested on: HOP-62 NSCLC
IGROV1 ovarian = tested on: IGROV1 ovarian
SN12C renal = tested on: SN12C renal
T-47D breast = tested on: T-47D breast
NCI-H460 lung = tested on: NCI-H460 lung
MCF7 breast = tested on: MCF7 breast
RPMI-8226 leukemia = tested on: RPMI-8226 leukemia
SK-MEL-2 melanoma = tested on: SK-MEL-2 melanoma
NCI-H226 lung = tested on: NCI-H226 lung
HCT-116 colon = tested on: HCT-116 colon
TK-10 renal = tested on: TK-10 renal
RXF 393 renal = tested on: RXF 393 renal
NCI/ADR-RES ovarian = tested on: NCI/ADR-RES ovarian
UO-31 renal = tested on: UO-31 renal
HL-60(TB) leukemia = tested on: HL-60(TB) leukemia
OVCAR-3 ovarian = tested on: OVCAR-3 ovarian
KM12 colon = tested on: KM12 colon
SW-620 colon = tested on: SW-620 colon
K-562 leukemia = tested on: K-562 leukemia
UACC-62 melanoma = tested on: UACC-62 melanoma
HT29 colon = tested on: HT29 colon
MALME-3M melanoma = tested on: MALME-3M melanoma
EKVX NSCLC = tested on: EKVX NSCLC
OVCAR-5 ovarian = tested on: OVCAR-5 ovarian
MOLT-4 leukemia = tested on: MOLT-4 leukemia
HCT-15 colon = tested on: HCT-15 colon
SF-268 CNS = tested on: SF-268 CNS
UACC-257 melanoma = tested on: UACC-257 melanoma
SK-MEL-28 melanoma = tested on: SK-MEL-28 melanoma
MDA-MB-435 = tested on: MDA-MB-435
COLO 205 colon = tested on: COLO 205 colon
A549 NSCLC = tested on: A549 NSCLC
A498 renal = tested on: A498 renal
SK-MEL-5 melanoma = tested on: SK-MEL-5 melanoma
SF-295 CNS = tested on: SF-295 CNS
HCC-2998 colon = tested on: HCC-2998 colon
NCI-H522 lung = tested on: NCI-H522 lung
OVCAR-8 ovarian = tested on: OVCAR-8 ovarian
OVCAR-4 ovarian = tested on: OVCAR-4 ovarian
CAKI-1 renal = tested on: CAKI-1 renal
BT-549 breast = tested on: BT-549 breast
CCRF-CEM leukemia = tested on: CCRF-CEM leukemia
PC-3 prostate = tested on: PC-3 prostate
SF-539 CNS = tested on: SF-539 CNS
SK-OV-3 ovarian = tested on: SK-OV-3 ovarian
SR leukemia = tested on: SR leukemia
DU-145 prostate = tested on: DU-145 prostate
M14 melanoma = tested on: M14 melanoma
U251 CNS = tested on: U251 CNS
MDA-MB-231 breast = tested on: MDA-MB-231 breast
ACHN renal = tested on: ACHN renal
786-0 renal = tested on: 786-0 renal
SNB-19 CNS = tested on: SNB-19 CNS
LOX IMVI melanoma = tested on: LOX IMVI melanoma
HOP-92 NSCLC = tested on: HOP-92 NSCLC
HS 578T breast = tested on: HS 578T breast
SNB-75 CNS = tested on: SNB-75 CNS
NCI-H23 lung = tested on: NCI-H23 lung

## CNC12C3C4C1C1C2C3C41C(=O)N[C@H](C(=O)N(C)[C@H](C[C@@H](OC(C)=O)c1nc(C(=O)N[C@@H](Cc2ccccc2)C[C@H](C)C(=O)OC)cs1)C(C)C)C1CC1 (some centres undefined)
HOP-62 NSCLC
  GI50: 501 nM
  TGI: > 15000 nM
IGROV1 ovarian
  GI50: 172 nM
  TGI: > 13400 nM
SN12C renal
  GI50: 612 nM
  TGI: > 15000 nM
T-47D breast
  GI50: 1380 nM
  TGI: > 15000 nM
NCI-H460 lung
  GI50: 517 nM
  TGI: > 15000 nM
MCF7 breast
  GI50: 40.5 nM
  TGI: > 15000 nM
RPMI-8226 leukemia
  GI50: 70.5 nM
  TGI: 1890 nM
SK-MEL-2 melanoma
  GI50: 189 nM
NCI-H226 lung
  GI50: 1730 nM
  TGI: > 14000 nM
HCT-116 colon
  GI50: 215 nM
  TGI: > 4100 nM
TK-10 renal
  GI50: 562 nM
  TGI: > 15000 nM
RXF 393 renal
  GI50: 213 nM
  TGI: 1330 nM
NCI/ADR-RES ovarian
  GI50: > 15000 nM
  TGI: > 15000 nM
UO-31 renal
  GI50: 2250 nM
  TGI: > 15000 nM
HL-60(TB) leukemia
  GI50: 40.3 nM
  TGI: 135 nM
OVCAR-3 ovarian
  GI50: 47.2 nM
  TGI: 372 nM
KM12 colon
  GI50: 276 nM
  TGI: 6690 nM
SW-620 colon
  GI50: 210 nM
  TGI: > 15000 nM
K-562 leukemia
  GI50: 66.7 nM
  TGI: > 15000 nM
UACC-62 melanoma
  GI50: 92.1 nM
  TGI: 2980 nM
HT29 colon
  GI50: 257 nM
  TGI: 1280 nM
MALME-3M melanoma
  GI50: 504 nM
  TGI: > 15000 nM
EKVX NSCLC
  GI50: 1950 nM
  TGI: > 15000 nM
OVCAR-5 ovarian
  GI50: 2200 nM
  TGI: > 15000 nM
MOLT-4 leukemia
  GI50: 467 nM
  TGI: > 13600 nM
HCT-15 colon
  GI50: 831 nM
  TGI: > 15000 nM
SF-268 CNS
  GI50: 354 nM
  TGI: > 10600 nM
UACC-257 melanoma
  GI50: 2990 nM
  TGI: > 15000 nM
SK-MEL-28 melanoma
  GI50: 2130 nM
  TGI: > 15000 nM
MDA-MB-435
  GI50: 46.7 nM
  TGI: 320 nM
COLO 205 colon
  GI50: 493 nM
  TGI: 2310 nM
A549 NSCLC
  GI50: 1530 nM
  TGI: > 15000 nM
A498 renal
  GI50: 1060 nM
  TGI: > 10900 nM
SK-MEL-5 melanoma
  GI50: 155 nM
  TGI: 1410 nM
SF-295 CNS
  GI50: 343 nM
  TGI: 1310 nM
HCC-2998 colon
  GI50: 319 nM
  TGI: 2670 nM
NCI-H522 lung
  GI50: 41 nM
  TGI: 524 nM
OVCAR-8 ovarian
  GI50: 523 nM
  TGI: > 15000 nM
OVCAR-4 ovarian
  GI50: 1100 nM
  TGI: > 15000 nM
CAKI-1 renal
  GI50: 2730 nM
  TGI: > 15000 nM
BT-549 breast
  GI50: 123 nM
  TGI: 745 nM
CCRF-CEM leukemia
  GI50: 318 nM
  TGI: 3020 nM
PC-3 prostate
  GI50: 391 nM
  TGI: > 15000 nM
SF-539 CNS
  GI50: 322 nM
  TGI: 930 nM
SK-OV-3 ovarian
  GI50: 714 nM
  TGI: > 15000 nM
SR leukemia
  GI50: 17.9 nM
  TGI: > 7820 nM
DU-145 prostate
  GI50: 317 nM
  TGI: > 3680 nM
M14 melanoma
  GI50: 294 nM
U251 CNS
  GI50: 587 nM
  TGI: > 15000 nM
MDA-MB-231 breast
  GI50: 402 nM
  TGI: 3330 nM
ACHN renal
  GI50: 901 nM
  TGI: > 15000 nM
786-0 renal
  GI50: 577 nM
  TGI: > 15000 nM
SNB-19 CNS
  GI50: 679 nM
  TGI: > 15000 nM
LOX IMVI melanoma
  GI50: 234 nM
  TGI: > 15000 nM
HOP-92 NSCLC
  GI50: 1800 nM
  TGI: 8930 nM
HS 578T breast
  GI50: 354 nM
  TGI: > 10300 nM
SNB-75 CNS
  GI50: 129 nM
  TGI: 2730 nM
NCI-H23 lung
  GI50: 511 nM
  TGI: > 15000 nM
